Reference: ChEMBL document CHEMBL3396988, “Structure-based design of inhibitors of coagulation factor XIa with novel P1 moieties” (Bioorg Med Chem Lett, 2015)

Experiments:
Kallikrein-1 = Kallikrein-1 (Homo sapiens, UniProt P06870); test: Inhibition of tissue kallikrein (unknown origin)
[1] = Inhibition of chymotrypsin (unknown origin); set-up: species or system Homo sapiens
Plasminogen = Plasminogen (Homo sapiens, UniProt P00747); test: Inhibition of plasmin (unknown origin)
[2] = target: Tissue-type plasminogen activator (Homo sapiens, UniProt P00750); test: Inhibition of TPA (unknown origin)
Tissue-type plasminogen activator, sequence (P00750 whole entry): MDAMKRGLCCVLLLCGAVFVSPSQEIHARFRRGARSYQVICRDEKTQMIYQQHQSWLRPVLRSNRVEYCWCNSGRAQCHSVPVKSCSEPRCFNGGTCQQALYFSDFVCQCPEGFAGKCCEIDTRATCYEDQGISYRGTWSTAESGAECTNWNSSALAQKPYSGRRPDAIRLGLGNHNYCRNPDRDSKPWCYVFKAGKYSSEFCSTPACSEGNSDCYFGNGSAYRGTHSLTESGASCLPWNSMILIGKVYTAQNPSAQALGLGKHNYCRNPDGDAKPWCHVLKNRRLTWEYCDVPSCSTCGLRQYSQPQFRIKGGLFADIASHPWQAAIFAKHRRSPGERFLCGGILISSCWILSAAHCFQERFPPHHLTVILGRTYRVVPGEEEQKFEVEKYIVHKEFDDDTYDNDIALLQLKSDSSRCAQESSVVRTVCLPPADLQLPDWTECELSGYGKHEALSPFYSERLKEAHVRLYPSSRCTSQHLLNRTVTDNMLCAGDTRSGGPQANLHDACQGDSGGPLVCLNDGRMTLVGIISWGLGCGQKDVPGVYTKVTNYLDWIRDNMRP

Coagulation factor XI [3] = target: T1, Coagulation factor XI (Homo sapiens, UniProt P03951); test: Inhibition of human coagulation factor 11a at 25 degC
T1 sequence (P03951 19-387 limits assumed): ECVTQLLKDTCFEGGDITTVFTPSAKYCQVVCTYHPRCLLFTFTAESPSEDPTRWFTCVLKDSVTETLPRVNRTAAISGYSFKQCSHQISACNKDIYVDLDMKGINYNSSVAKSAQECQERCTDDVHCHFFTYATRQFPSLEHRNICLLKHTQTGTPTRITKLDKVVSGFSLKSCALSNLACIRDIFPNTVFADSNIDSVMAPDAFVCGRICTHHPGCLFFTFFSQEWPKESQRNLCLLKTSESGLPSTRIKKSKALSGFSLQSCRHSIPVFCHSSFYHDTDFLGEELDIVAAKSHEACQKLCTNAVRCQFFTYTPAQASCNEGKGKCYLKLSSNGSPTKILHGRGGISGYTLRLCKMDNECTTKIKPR
T1 sequence (P03951 388-625 limits assumed): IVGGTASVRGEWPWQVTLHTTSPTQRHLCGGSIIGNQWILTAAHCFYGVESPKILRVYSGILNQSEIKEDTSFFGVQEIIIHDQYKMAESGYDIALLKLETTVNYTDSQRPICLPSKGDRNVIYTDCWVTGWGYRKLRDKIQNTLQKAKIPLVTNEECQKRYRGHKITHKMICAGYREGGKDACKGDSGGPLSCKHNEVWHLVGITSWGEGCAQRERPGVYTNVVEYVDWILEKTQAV

[4] = Permeability of the compound at pH 7.4 by PAMPA method; assay type: ADME; settings: read-out: permeability
[5] = Clearance in dog at 1 mg/kg, po or 0.4 mg/kg, iv administered in discrete format; assay type: ADME, organism-based, Canis lupus familiaris; settings: in vivo
[6] = Volume of distribution at steady state in dog at 1 mg/kg, po or 0.4 mg/kg, iv administered in discrete format; assay type: ADME, organism-based, Canis lupus familiaris; settings: in vivo, read-out: Vdss
[7] = Half life in dog at 1 mg/kg, po or 0.4 mg/kg, iv administered in discrete format; assay type: ADME, organism-based, Canis lupus familiaris; settings: in vivo
[8] = Oral bioavailability in dog at 1 mg/kg administered in discrete format; assay type: ADME, organism-based, Canis lupus familiaris; settings: in vivo
Trypsin = Trypsin (Homo sapiens, UniProt P07477+P07478+P35030); test: Inhibition of human trypsin at 25 degC; assay type: protein assay
[9] = Clearance in dog at 0.5 mg/kg, po or 0.4 mg/kg, iv administered in cassette format; assay type: ADME, organism-based, Canis lupus familiaris; settings: in vivo
[10] = Volume of distribution at steady state in dog at 0.5 mg/kg, po or 0.4 mg/kg, iv administered in cassette format; assay type: ADME, organism-based, Canis lupus familiaris; settings: in vivo, read-out: Vdss
[11] = Half life in dog at 0.5 mg/kg, po or 0.4 mg/kg, iv administered in cassette format; assay type: ADME, organism-based, Canis lupus familiaris; settings: in vivo
[12] = Oral bioavailability in dog at 0.5 mg/kg administered in cassette format; assay type: ADME, organism-based, Canis lupus familiaris; settings: in vivo
Plasma = test: Anticoagulant activity in human plasma assessed as compound level causing 1.5 times increase in activated partial […] time; assay type: functional
[13] = Half life in human liver microsomes; assay type: ADME
Coagulation factor VII = target: T2, Coagulation factor VII (Homo sapiens, UniProt P08709); test: Inhibition of coagulation factor 7a (unknown origin)
T2 sequence (P08709 whole entry): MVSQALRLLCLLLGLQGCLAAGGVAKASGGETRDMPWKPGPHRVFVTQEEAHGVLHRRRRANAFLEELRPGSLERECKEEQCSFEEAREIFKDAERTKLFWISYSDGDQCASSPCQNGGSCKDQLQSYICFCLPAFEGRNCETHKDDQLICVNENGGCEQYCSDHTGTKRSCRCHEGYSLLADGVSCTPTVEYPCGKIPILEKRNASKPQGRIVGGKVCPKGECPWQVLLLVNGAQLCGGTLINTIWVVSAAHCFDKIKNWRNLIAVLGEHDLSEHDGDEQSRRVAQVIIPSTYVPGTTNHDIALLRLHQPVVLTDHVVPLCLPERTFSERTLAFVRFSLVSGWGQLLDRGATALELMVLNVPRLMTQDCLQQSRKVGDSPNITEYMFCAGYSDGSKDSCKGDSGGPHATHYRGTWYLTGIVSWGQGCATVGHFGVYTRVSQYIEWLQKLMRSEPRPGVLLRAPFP

Coagulation factor IX = Coagulation factor IX (Homo sapiens, UniProt P00740); test: Inhibition of coagulation factor 9a (unknown origin)
Coagulation factor IX, sequence (P00740 47-191 limits assumed): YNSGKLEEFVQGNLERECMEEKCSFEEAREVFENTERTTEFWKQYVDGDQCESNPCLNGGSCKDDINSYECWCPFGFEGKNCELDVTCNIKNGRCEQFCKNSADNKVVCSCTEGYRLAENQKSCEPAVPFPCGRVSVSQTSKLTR
Coagulation factor IX, sequence (P00740 227-461 limits assumed): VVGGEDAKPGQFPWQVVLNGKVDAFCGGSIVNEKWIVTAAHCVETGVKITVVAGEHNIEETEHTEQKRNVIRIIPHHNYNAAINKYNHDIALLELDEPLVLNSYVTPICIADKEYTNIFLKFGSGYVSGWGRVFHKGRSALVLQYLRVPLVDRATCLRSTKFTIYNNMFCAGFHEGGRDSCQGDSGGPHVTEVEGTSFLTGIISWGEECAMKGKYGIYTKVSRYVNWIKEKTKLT

Coagulation factor X = Coagulation factor X (Homo sapiens, UniProt P00742); test: Inhibition of coagulation factor 10a (unknown origin)
Coagulation factor X, sequence (P00742 41-179 limits assumed): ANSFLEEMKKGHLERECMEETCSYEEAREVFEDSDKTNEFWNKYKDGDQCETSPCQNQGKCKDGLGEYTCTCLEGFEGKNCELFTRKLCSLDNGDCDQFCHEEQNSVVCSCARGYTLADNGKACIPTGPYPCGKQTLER
Coagulation factor X, sequence (P00742 235-488 limits assumed): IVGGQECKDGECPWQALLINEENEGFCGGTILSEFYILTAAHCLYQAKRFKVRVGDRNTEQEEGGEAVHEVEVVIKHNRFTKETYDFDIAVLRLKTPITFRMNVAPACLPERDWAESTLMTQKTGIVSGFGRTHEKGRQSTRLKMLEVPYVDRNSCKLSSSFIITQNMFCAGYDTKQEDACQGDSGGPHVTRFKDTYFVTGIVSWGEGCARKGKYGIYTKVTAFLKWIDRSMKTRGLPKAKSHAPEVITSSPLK

Prothrombin = Prothrombin (Homo sapiens, UniProt P00734); test: Inhibition of thrombin (unknown origin)
Plasma kallikrein = Plasma kallikrein (Homo sapiens, UniProt P03952); test: Inhibition of plasma kallikrein (unknown origin)
Plasma kallikrein, sequence (P03952 20-390 limits assumed): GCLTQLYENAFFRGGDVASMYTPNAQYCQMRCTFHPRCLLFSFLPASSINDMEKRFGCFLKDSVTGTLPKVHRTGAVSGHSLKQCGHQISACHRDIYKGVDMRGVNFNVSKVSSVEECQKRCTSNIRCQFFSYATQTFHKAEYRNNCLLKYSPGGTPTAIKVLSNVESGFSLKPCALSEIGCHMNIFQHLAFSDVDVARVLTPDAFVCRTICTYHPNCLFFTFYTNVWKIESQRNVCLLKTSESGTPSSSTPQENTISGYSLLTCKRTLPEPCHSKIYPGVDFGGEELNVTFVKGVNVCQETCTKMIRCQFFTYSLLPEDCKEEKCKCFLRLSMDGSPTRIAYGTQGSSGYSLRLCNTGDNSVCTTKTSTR
Plasma kallikrein, sequence (P03952 391-638 limits assumed): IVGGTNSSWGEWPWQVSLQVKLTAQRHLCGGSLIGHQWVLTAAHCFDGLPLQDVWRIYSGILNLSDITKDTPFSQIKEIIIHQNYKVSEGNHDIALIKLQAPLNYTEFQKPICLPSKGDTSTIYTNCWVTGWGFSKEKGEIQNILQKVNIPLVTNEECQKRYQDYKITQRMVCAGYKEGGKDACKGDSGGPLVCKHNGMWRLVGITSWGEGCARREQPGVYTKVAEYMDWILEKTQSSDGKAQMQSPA

Coagulation factor XI [14] = target: T1, Coagulation factor XI; test: Inhibition of human coagulation factor 11a at 37 degC

Plasminogen, sequence (P00747 97-580 limits assumed): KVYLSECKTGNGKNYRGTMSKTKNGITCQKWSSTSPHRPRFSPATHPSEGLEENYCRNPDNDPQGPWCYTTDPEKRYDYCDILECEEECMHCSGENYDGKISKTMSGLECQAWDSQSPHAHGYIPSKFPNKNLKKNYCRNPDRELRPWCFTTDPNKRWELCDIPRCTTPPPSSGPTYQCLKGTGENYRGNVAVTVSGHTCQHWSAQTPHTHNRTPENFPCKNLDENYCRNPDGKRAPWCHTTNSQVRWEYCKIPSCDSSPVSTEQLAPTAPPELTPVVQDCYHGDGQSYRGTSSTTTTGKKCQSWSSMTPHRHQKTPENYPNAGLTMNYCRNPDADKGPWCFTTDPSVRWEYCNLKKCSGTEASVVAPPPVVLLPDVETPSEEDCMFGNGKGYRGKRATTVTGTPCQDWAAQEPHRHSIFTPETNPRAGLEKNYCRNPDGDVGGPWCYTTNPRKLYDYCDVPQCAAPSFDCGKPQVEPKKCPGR
Plasminogen, sequence (P00747 581-810 limits assumed): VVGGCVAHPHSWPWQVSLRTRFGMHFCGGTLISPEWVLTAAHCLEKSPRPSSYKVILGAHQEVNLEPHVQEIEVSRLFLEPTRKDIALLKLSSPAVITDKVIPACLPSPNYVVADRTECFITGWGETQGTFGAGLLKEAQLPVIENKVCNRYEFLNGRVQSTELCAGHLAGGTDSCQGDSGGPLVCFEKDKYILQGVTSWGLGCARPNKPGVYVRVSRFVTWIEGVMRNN
Kallikrein-1, sequence (P06870 whole entry): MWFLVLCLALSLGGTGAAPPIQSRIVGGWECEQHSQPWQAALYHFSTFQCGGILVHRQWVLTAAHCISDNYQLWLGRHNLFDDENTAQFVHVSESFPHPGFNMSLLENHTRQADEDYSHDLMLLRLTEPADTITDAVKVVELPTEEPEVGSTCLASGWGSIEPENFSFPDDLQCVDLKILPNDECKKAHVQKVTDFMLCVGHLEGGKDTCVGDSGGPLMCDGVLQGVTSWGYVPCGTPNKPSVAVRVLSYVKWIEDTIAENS

Ki (Coagulation factor XI [3]) [nM] | Ki (Trypsin) [nM] | clearance [9] [mL/min/kg] | Vd [10] [L/kg] | half-life [11] [h] | Structure (SMILES) | further results
0.31 | – | – | – | – | NC[C@H]1CC[C@H](C(=O)N[C@@H](Cc2ccccc2)c2nc(-c3ccc4c(N)n[nH]c4c3)c(Cl)[nH]2)CC1 | Ki (Kallikrein-1): 650 nM; Ki [1]: > 20800 nM; Ki (Plasminogen): 8400 nM; Ki [2]: > 22000 nM; Papp [4]: 0.03 ×10⁻⁶ cm/s; clearance [5]: 11.2 mL/min/kg; Vd [6]: 0.92 L/kg; half-life [7]: 1.88 h; bioavailability [8]: 3.6%
1.49 | 1040 | – | – | – | NCC12CCC(C(=O)N[C@@H](Cc3ccccc3)c3nc(-c4ccc5c(N)n[nH]c5c4)c(Cl)[nH]3)(CC1)CC2 | –
1.16 | 59 | – | – | – | NCc1ccc(C(=O)N[C@@H](Cc2ccccc2)c2nc(-c3ccc4c(N)n[nH]c4c3)c(Cl)[nH]2)cc1 | –
1.03 | 58 | – | – | – | NCc1ccc(C(=O)N[C@@H](Cc2ccccc2)c2nc(-c3ccc4c(N)n[nH]c4c3)c(Cl)[nH]2)c(F)c1 | –
19 | 380 | 49.5 | 1 | 0.14 | Nc1nccc2cc(C(=O)N[C@@H](Cc3ccccc3)c3nc(-c4ccc5c(N)n[nH]c5c4)c(Cl)[nH]3)ccc12 | Papp [4]: 3.8 ×10⁻⁶ cm/s; bioavailability [12]: < 2%
58 | 1400 | – | – | – | Nc1n[nH]c2cc(C(=O)N[C@@H](Cc3ccccc3)c3nc(-c4ccc5c(N)n[nH]c5c4)c(Cl)[nH]3)ccc12 | –
125 | > 5000 | – | – | – | Nc1n[nH]c2cc(-c3nc([C@H](Cc4ccccc4)NC(=O)c4ccc5c(N)noc5c4)[nH]c3Cl)ccc12 | –
2900 | > 5000 | – | – | – | Nc1n[nH]c2cc(-c3nc([C@H](Cc4ccccc4)NC(=O)[C@H]4CC[C@H](C(N)=O)CC4)[nH]c3Cl)ccc12 | –
68 | > 6000 | 15.4 | 0.9 | 1.5 | C[C@H]1CC[C@H](C(=O)N[C@@H](Cc2ccccc2)c2nc(-c3ccc4c(N)n[nH]c4c3)c(Cl)[nH]2)CC1 | Papp [4]: 0.46 ×10⁻⁶ cm/s; bioavailability [12]: < 1%
310 | > 5000 | 12.5 | 1.5 | 1.4 | NC(=O)c1ccc(C(=O)N[C@@H](Cc2ccccc2)c2nc(-c3ccc4c(N)n[nH]c4c3)c(Cl)[nH]2)cc1 | bioavailability [12]: 26%
390 | > 5000 | – | – | – | Cc1ccc(C(=O)N[C@@H](Cc2ccccc2)c2nc(-c3ccc4c(N)n[nH]c4c3)c(Cl)[nH]2)cc1 | –
200 | > 5000 | 9 | 1.9 | 1.8 | Cc1ccc(C(=O)N[C@@H](Cc2ccccc2)c2nc(-c3ccc4c(N)n[nH]c4c3)c(Cl)[nH]2)c(F)c1 | Papp [4]: 54.7 ×10⁻⁶ cm/s; bioavailability [12]: 30%
280 | > 6000 | – | – | – | COc1ccc(C(=O)N[C@@H](Cc2ccccc2)c2nc(-c3ccc4c(N)n[nH]c4c3)c(Cl)[nH]2)c(F)c1 | –
65 | > 6000 | 15.2 | 1.3 | 1.2 | COc1cc(F)c(C(=O)N[C@@H](Cc2ccccc2)c2nc(-c3ccc4c(N)n[nH]c4c3)c(Cl)[nH]2)c(F)c1 | Papp [4]: 23.4 ×10⁻⁶ cm/s; bioavailability [12]: 49%
530 | > 5000 | – | – | – | Nc1n[nH]c2cc(-c3nc([C@H](Cc4ccccc4)NC(=O)c4cc(Cl)ccc4F)[nH]c3Cl)ccc12 | –
54 | – | – | – | – | Nc1n[nH]c2cc(-c3nc([C@H](Cc4ccccc4)NC(=O)NCc4cccc(Cl)c4)[nH]c3Cl)ccc12 | –
31 | – | – | – | – | Nc1n[nH]c2cc(-c3nc([C@H](Cc4ccccc4)NC(=O)NCc4cc(Cl)ccc4F)[nH]c3Cl)ccc12 | –
53 | – | – | – | – | Cc1ccc(Cl)cc1CNC(=O)N[C@@H](Cc1ccccc1)c1nc(-c2ccc3c(N)n[nH]c3c2)c(Cl)[nH]1 | –

Ki (Coagulation factor XI [3]) [nM] | Ki (Trypsin) [nM] | clearance [9] [mL/min/kg] | Vd [10] [L/kg] | half-life [11] [h] | Structure (SMILES) | further results
240 | – | – | – | – | Nc1n[nH]c2cc(-c3nc([C@H](Cc4ccccc4)NC(=O)NCc4cc(Cl)ccc4C(F)(F)F)[nH]c3Cl)ccc12 | –
75 | – | – | – | – | COc1ccc(Cl)cc1CNC(=O)N[C@@H](Cc1ccccc1)c1nc(-c2ccc3c(N)n[nH]c3c2)c(Cl)[nH]1 | –
57 | – | – | – | – | Nc1n[nH]c2cc(-c3nc([C@H](Cc4ccccc4)NC(=O)NCc4cccc(Cl)c4F)[nH]c3Cl)ccc12 | –
23 | – | – | – | – | Nc1n[nH]c2cc(-c3nc([C@H](Cc4ccccc4)NC(=O)NCc4c(F)ccc(Cl)c4F)[nH]c3Cl)ccc12 | –
5.8 | – | – | – | – | NCc1ccc(Cl)cc1CNC(=O)N[C@@H](Cc1ccccc1)c1nc(-c2ccc3c(N)n[nH]c3c2)c(Cl)[nH]1 | Activity (Plasma): 3.9 µM
1.5 | – | 31.2 | 1.4 | 2.1 | Nc1n[nH]c2cc(-c3nc([C@H](Cc4ccccc4)NC(=O)NCc4cc(Cl)ccc4-n4cnnn4)[nH]c3Cl)ccc12 | bioavailability [12]: 0%; Activity (Plasma): 1.8 µM; half-life [13]: < 0.0167 h
450 | – | – | – | – | Nc1n[nH]c2cc(-c3nc([C@H](Cc4ccccc4)NC(=O)NCc4cc(Cl)ccc4-n4cccn4)[nH]c3Cl)ccc12 | half-life [13]: < 0.0167 h
46 | – | – | – | – | Nc1n[nH]c2cc(-c3nc([C@H](Cc4ccccc4)NC(=O)NCc4cc(Cl)ccc4-n4cncn4)[nH]c3Cl)ccc12 | Activity (Plasma): 34 µM; half-life [13]: < 0.0167 h
3.4 | – | 34.5 | 2.8 | 2.8 | COC(=O)Nc1ccc(-c2nc([C@H](Cc3ccccc3)NC(=O)NCc3cc(Cl)ccc3-n3cnnn3)[nH]c2Cl)cc1 | Activity (Plasma): 5.6 µM; half-life [13]: < 0.0167 h
1.9 | – | 38.3 | 4.4 | 2.6 | COC(=O)Nc1ccc(-c2nc([C@H](Cc3ccccc3)NC(=O)CCc3cc(Cl)ccc3-n3cnnn3)[nH]c2Cl)cc1 | Activity (Plasma): 5.2 µM
2.7 | – | 9 | 1.6 | 3.1 | COC(=O)Nc1ccc(-c2nc([C@H](Cc3ccccc3)NC(=O)/C=C/c3cc(Cl)ccc3-n3cnnn3)[nH]c2Cl)cc1 | bioavailability [12]: 3%; Activity (Plasma): 5.3 µM; half-life [13]: 0.55 h
6.7 | > 6200 | – | 3.4 | 2.4 | COC(=O)Nc1ccc(-c2c[nH]c([C@H](Cc3ccccc3)NC(=O)/C=C/c3cc(Cl)ccc3-n3cnnn3)n2)cc1 | Ki (Coagulation factor VII): > 13000 nM; Ki (Coagulation factor IX): > 60000 nM; Ki (Coagulation factor X): 1500 nM; Ki (Prothrombin): > 15000 nM; Ki (Plasma kallikrein): 240 nM; Ki (Kallikrein-1): > 30000 nM; Ki [1]: 1300 nM; Ki (Plasminogen): > 41000 nM; Ki [2]: 17000 nM; bioavailability [12]: 10.4%; Activity (Plasma): 8.6 µM
– | – | – | – | – | Nc1n[nH]c2cc(-c3c[nH]c([C@H](Cc4ccccc4)NC(=O)/C=C/c4cc(Cl)ccc4-n4cnnn4)n3)ccc12 | Activity (Plasma): 4 µM; Ki (Coagulation factor XI [14]): 5 nM
1.2 | > 6200 | 16 | 0.8 | 2.2 | Nc1n[nH]c2cc(-c3nc([C@H](Cc4ccccc4)NC(=O)/C=C/c4cc(Cl)ccc4-n4cnnn4)[nH]c3Cl)ccc12 | Ki (Coagulation factor VII): > 13000 nM; Ki (Coagulation factor IX): > 35000 nM; Ki (Coagulation factor X): > 1000 nM; Ki (Prothrombin): > 13000 nM; Ki (Plasma kallikrein): 41 nM; Ki (Kallikrein-1): 1200 nM; Ki [1]: 660 nM; Ki (Plasminogen): > 24000 nM; Ki [2]: 19000 nM; bioavailability [12]: 0%; Activity (Plasma): 3 µM
2.6 | 2800 | 34.8 | 2.8 | 2.3 | Nc1nccc2c1CCC(C(=O)N[C@@H](Cc1ccccc1)c1nc(-c3ccc4c(N)n[nH]c4c3)c(Cl)[nH]1)C2 (single isomer, unassigned; diastereomer A) | Papp [4]: 0.15 ×10⁻⁶ cm/s; bioavailability [12]: < 2%
2.5 | 360 | – | – | – | Nc1nccc2c1CCC(C(=O)N[C@@H](Cc1ccccc1)c1nc(-c3ccc4c(N)n[nH]c4c3)c(Cl)[nH]1)C2 (single isomer, unassigned; diastereomer B) | –
2.15 | 1430 | – | – | – | Nc1nccc2c1CCC(C(=O)N[C@@H](Cc1ccccc1)c1nc(-c3ccc4c(N)n[nH]c4c3)c(Cl)[nH]1)C2 (stereo in doubt; 6) | –
